Experimental data from US8263754B2, “Amphiphiles for protein solubilization and stabilization” (Wisconsin Alumni Research Foundation, priority 2008, dated 2012).

Experiment: Critical micelle concentration (CMC) by dye solubilization (Orange OT or DPH)
Assay type: physicochemical
Details: determined by DPH (diphenylhexatriene) or Orange OT
Excerpt: Aqueous solubilization of Orange OT was used to determine critical micelle concentrations (CMC). […] Facile self-association of these amphiphiles under these conditions may be hindered by the hydrophilicity and/or steric bulk of the triglucoside and dimaltoside headgroups.
The Critical Micelle Concentrations (CMCs) of compounds of the invention can be determined by standard techniques known to those of skill in the art. For example, CMCs of the carbohydrate-based amphiphiles described herein can be determined by monitoring uptake of a dye (e.g., Orange OT or 1,6-diphenylhexatriene) with increasing detergent concentration, monitored by UV-visible or fluorescence spectroscopy.

SMILES	CMC [mM]	CMC (%)
CCCCCCCCC(=O)NC(CO[C@@H]1O[C@H](CO)[C@@H](O)[C@H](O)[C@H]1O)CO[C@@H]1O[C@H](CO)[C@@H](O)[C@H](O)[C@H]1O [C8-MPA2]	77	4.3
CCCCCCCCCCC(=O)NC(CO[C@@H]1O[C@H](CO)[C@@H](O)[C@H](O)[C@H]1O)CO[C@@H]1O[C@H](CO)[C@@H](O)[C@H](O)[C@H]1O [C10-MPA 2]	8.1	0.47
CCCCCCCCCCCCCCC(=O)NC(CO[C@@H]1O[C@H](CO)[C@@H](O)[C@H](O)[C@H]1O)CO[C@@H]1O[C@H](CO)[C@@H](O)[C@H](O)[C@H]1O [C14-MPA2]	0.17	0.011
CC(C)(C)CC(C)(C)c1ccc(OCC(=O)NC(COC2OC(CO)C(O)C(O)C2O)COC2OC(CO)C(O)C(O)C2O)cc1 (stereo not shown) [CGT2]	2.6	0.17
O=C(NCCOC1OC(CO)C(OC2OC(CO)C(O)C(O)C2O)C(O)C1O)C(c1ccccc1)c1ccccc1 (stereo not shown) [DPA 68]	85.3	4.95
O=C(NCCO[C@@H]1O[C@H](CO)[C@@H](O[C@H]2O[C@H](CO)[C@@H](O)[C@H](O)[C@H]2O)[C@H](O)[C@H]1O)C(C1CCCCC1)C1CCCCC1 [DPA 69]	13.9	0.82
CCCCC(CCCC)(CC(=O)NC(CO[C@@H]1O[C@H](CO)[C@@H](O)[C@H](O)[C@H]1O)(CO[C@@H]1O[C@H](CO)[C@@H](O)[C@H](O)[C@H]1O)CO[C@@H]1O[C@H](CO)[C@@H](O)[C@H](O)[C@H]1O)c1ccc(-c2ccccc2)cc1 [TPA13]	3.7	0.34
CCCCC(CCCC)(CC(=O)NC(CO[C@@H]1O[C@H](CO)[C@@H](O)[C@H](O)[C@H]1O)(CO[C@@H]1O[C@H](CO)[C@@H](O)[C@H](O)[C@H]1O)CO[C@@H]1O[C@H](CO)[C@@H](O)[C@H](O)[C@H]1O)c1ccc(C(C)(C)C)cc1 [TPA14]	3.4	0.31
CCCCC(CCCC)(CC(=O)NC(COC1OC(CO)C(OC2OC(CO)C(O)C(O)C2O)C(O)C1O)COC1OC(CO)C(OC2OC(CO)C(O)C(O)C2O)C(O)C1O)c1ccc(-c2ccccc2)cc1 (stereo not shown) [TPA15]	1.7	0.18
CCCCC(CCCC)(CC(=O)NC(CO[C@@H]1O[C@H](CO)[C@@H](O[C@H]2O[C@H](CO)[C@@H](O)[C@H](O)[C@H]2O)[C@H](O)[C@H]1O)CO[C@@H]1O[C@H](CO)[C@@H](O[C@H]2O[C@H](CO)[C@@H](O)[C@H](O)[C@H]2O)[C@H](O)[C@H]1O)c1ccc(C(C)(C)C)cc1 [TPA16]	3.3	0.34
CCCCCCC(CCCCCC)(CC(=O)NC(CO[C@@H]1O[C@H](CO)[C@@H](O)[C@H](O)[C@H]1O)(CO[C@@H]1O[C@H](CO)[C@@H](O)[C@H](O)[C@H]1O)CO[C@@H]1O[C@H](CO)[C@@H](O)[C@H](O)[C@H]1O)c1ccccc1 [TPA17]	1.4	0.13
CCCCCCC(CCCCCC)(CC(=O)NC(CO[C@@H]1O[C@H](CO)[C@@H](O[C@H]2O[C@H](CO)[C@@H](O)[C@H](O)[C@H]2O)[C@H](O)[C@H]1O)CO[C@@H]1O[C@H](CO)[C@@H](O[C@H]2O[C@H](CO)[C@@H](O)[C@H](O)[C@H]2O)[C@H](O)[C@H]1O)c1ccccc1 [TPA18]	0.3	0.03
CCCCC(CCCC)(CC(=O)NC(CO[C@@H]1O[C@H](CO)[C@@H](O)[C@H](O)[C@H]1O)(CO[C@@H]1O[C@H](CO)[C@@H](O)[C@H](O)[C@H]1O)CO[C@@H]1O[C@H](CO)[C@@H](O)[C@H](O)[C@H]1O)C1CCCCC1 [TPA22]	3.7	0.32
CCCCC(CCCC)(CC(=O)NC(CO[C@@H]1O[C@H](CO)[C@@H](O[C@H]2O[C@H](CO)[C@@H](O)[C@H](O)[C@H]2O)[C@H](O)[C@H]1O)CO[C@@H]1O[C@H](CO)[C@@H](O[C@H]2O[C@H](CO)[C@@H](O)[C@H](O)[C@H]2O)[C@H](O)[C@H]1O)C1CCCCC1 [TPA24]	1.9	0.19
CCCCC(CCCC)(CC(=O)NC(CO[C@@H]1O[C@H](CO)[C@@H](O)[C@H](O)[C@H]1O)CO[C@@H]1O[C@H](CO)[C@@H](O)[C@H](O)[C@H]1O)CC(C)C [TPA25]	4.1	0.26
CCCCC(CCCC)(CC(=O)NC(CO[C@@H]1O[C@H](CO)[C@@H](O)[C@H](O)[C@H]1O)CO[C@@H]1O[C@H](CO)[C@@H](O)[C@H](O)[C@H]1O)c1ccc(I)cc1 [TPA 28]	0.89	0.07
CCCCC(CCCC)(CC(=O)NC(COC1OC(CO)C(O)C(O)C1O)COC1OC(CO)C(O)C(O)C1O)c1ccc(C)cc1 (stereo not shown) [TPA 31]	2.4	0.16
